Reference: publication PMC7079008, “Compactness of Protein Folds Alters Disulfide‐Bond Reducibility by Three Orders of Magnitude: A Comprehensive Kinetic Case Study on the Reduction of Differently Sized Tryptophan Cage Model Proteins” (Chembiochem, 2019)

Assay: TCEP stability in phosphate buffer by 31P NMR
Assay type: physicochemical
Settings: 50 mM phosphate buffer, room temperature, over 14 days
Protocol: Due to the acidic nature of TCEP, to avoid any pH shift, a phosphate buffer (50 mM, pH 7) was used to sustain near‐physiological pH. The groups of Han39 and Whitesides37 described the chemical instability of TCEP above pH 7 in 300–400 mM phosphate buffer.
NMR spectroscopy: All ^1H NMR spectroscopy experiments were performed on a Bruker Avance III 700 MHz spectrometer equipped with a z‐gradient 5 mm probe head operating at 700.13 MHz for ^1H, whereas ^31P NMR spectroscopy experiments were performed on a Bruker Avance 250 spectrometer with a 5 mm SB quad probe head.

O=C(O)CCP(CCC(=O)O)CCC(=O)O [TCEP, tris(2‐carboxyethyl)phosphine]
TCEP oxidation or degradation: no significant spectral changes
